Measurements reported in patent US20070123514A1, “Methods of modulating neurotrophin-mediated activity” (PainCeptor Pharma Corporation, priority 2005, published 2007).
Entries after “also recorded” stand apart in the source; their conditions may differ.

Key:
PC12 (TrkA & p75) = assay: 125I-NGF binding displacement in PC12 cells; design: species or system rat; details: PC12 cells expressing TrkA and p75; result in words
Method: The method for acquiring the PC12 data described in Table 1 is described herein in Example 1. Each experiment was done at least once with an n value of 4 for each data point. (n/a=not acquired)
All cells were incubated at 37° C. in 5% CO2. PC12 cells were maintained in RPMI-1640 medium supplemented with 10% fetal bovine serum (FBS). A875 human melanoma cells were maintained in DMEM with 10% FBS. HEK 293 cells were stably transfected with human TrkA plasmid (see below) and maintained in DMEM with 10% FBS and G418 (600 μg/mL) for selection.
NGF binding was evaluated using methods familiar to those who are skilled in the art. Briefly, cells expressing one or both NGF receptors (PC12: TrkA+p75; A875: p75 alone; HEK_trkA: TrkA alone) were harvested by replacing the medium with calcium-magnesium free balanced salt (Grey's) solution and incubating at 37° C. for 15 min. For NGF binding, cells were resuspended at a concentration of 2×10^6 cells/mL in HEPES-Krebs-Ringer (HKR) buffer (10 mM HEPES; 125 mM NaCl; 4.8 mM KCl; 1.3 mM CaCl2; 1.2 mM MgSO4; 1.2 mM KH2PO4; 1 mg/ml BSA; 1 mg/ml glucose; pH 7.4) and exposed to ^125I-NGF (˜0.1 nM) in the presence or absence of varying concentrations of the compound. Non-specific binding was determined for reference by incubating ^125I-NGF with an excess of non-radioactive NGF in the abence of compound. Following a two-hour incubation period at 4° C., ^125I-NGF bound to the cells was quantified in a gamma radiation counter following separation from unbound NGF by filtration or centrifugation through glycerol (10% in HKR). Inhibition of binding was calculated as a percent of the specific binding (calculated as the differential between ^125I-NGF binding in the absence and presence of an excess of non-radioactive NGF without compound). Dose-response inhibition curves were typically generated with seven concentrations of a given compound, with three replicates for each concentration. For most compounds, multiple dose-response curves were generated.
The IC50 data shown in Table 1 were acquired using the procedure described herein using PC12 cells.

Male Sprague-Dawley rats [1] = assay: Formalin model of acute tonic pain; format: in vivo, rat
Method: Male Sprague-Dawley rats were given a subcutaneous injection of 50 μl of 2.5% formalin into the plantar surface of one hindpaw using a 27 gauge syringe needle, and nociceptive responses were measured for the next 60 min. Compound or vehicle was administered (ip. or s.c.) 15-45 minutes prior to the formalin injection. A nociceptive score was determined for each 5 min block by measuring the amount of time spent in each of four behavioral categories: 0, the injected hindpaw is indistinguishable from that of the contralateral paw; 1, the injected paw has little or no weight placed on it; 2, the injected paw is elevated and is not in contact with any surface; 3, the injected paw is licked, bitten, or shaken. A weighted nociceptive score, ranging from 0 to 3 was calculated by multiplying the time spent in each category by the category weight, summing these products, and dividing by the total time for each 5 min block of time (Coderre et al., Pain 1993; 54: 43). On the basis of the resulting response patterns, 2 phases of nociceptive behaviour were identified and scored: first phase (P1; 0-5 min) and second phase (P2; 11-40 min).
Statistical analysis was performed using Prism™ 4.01 software package (GraphPad, San Diego, Calif., USA). The difference in response levels between treatment groups and control vehicle group was analyzed using an ANOVA followed by Bonferroni's method for post-hoc pair-wise comparisons. A p value <0.05 was considered to be significant.
Animals were treated with vehicle (VEH) or Compound 5 (50 mg/kg i.p.; CMP) 10-20 minutes before the intraplantar injection of 2.5% formalin, as described above.

Male Sprague-Dawley rats [2] = assay: Seltzer or Partial Nerve Ligation (PNL) model of neuropathic pain, mechanical allodynia; format: in vivo, rat; details: 25 mg/kg i.p., 90 min post-treatment
Excerpt: The Partial Nerve Ligation (PNL) model (Seltzer et al., Pain 1990; 43:205) was used to induce chronic neuropathic pain. Male Sprague-Dawley rats were anesthetized with isoflurane, and injury to the sciatic nerve was achieved by tying a tight ligature around ⅓ to ½ of the sciatic nerve just proximal to the nerve's trifurcation in the mid-thigh. Animals develop thermal and mechanical hyperalgesia and allodynia, as well as a long-lasting spontaneous pain or dysesthesia after the nerve injury.
Mechanical allodynia testing: Pre- and post-injury baselines as well as post-treatment values (vehicle or compound-treated animals) for mechanical allodynia were evaluated using Von Frey filaments (Stoelting, Wood Dale, Ill., USA) with varying stiffness. […] The mean and standard error of the mean (SEM) were determined for each paw in each treatment group (ipsilateral/injured paw and contralateral/non-injured paw). […] Effects of compounds were evaluated two weeks after the injury. Compound or vehicle was administered (i.p. or s.c.) and effects on mechanical allodynia were measured at different time points after dosing (e.g., 30, 60 and 90 min.).
Data analysis: Statistical analyses were conducted using Prism™ 4.01 (GraphPad, San Diego, Calif., USA). Mechanical hypersensitivity of the injured paw was determined by comparing contralateral to ipsilateral paw values within the vehicle group at each time point. […]

For O=C(O)c1ccc(Cl)c(N2C(=O)c3cccc4cc([N+](=O)[O-])cc(c34)C2=O)c1 [Compound 5, 4-Chloro-3-(5-nitro-1,3-dioxo-1H,3H-benzo[de]isoquinolin-2-yl)-benzoic acid], the “blocking of NGF binding (dose-response curve)” value (PC12 (TrkA & p75)) was “effectively block NGF binding”, the “formalin-induced spontaneous responses, Phase I” value (Male Sprague-Dawley rats [1]; 50 mg/kg i.p. 10-20 min before 2.5% formalin, vehicle 148±9, n=8) was 59±15 and the “formalin-induced spontaneous responses, Phase II” value (Male Sprague-Dawley rats [1]; 50 mg/kg i.p. 10-20 min before 2.5% formalin, vehicle 180±6, n=8) was 61±19. The “antinociceptive effect in the Formalin Test” value (Male Sprague-Dawley rats [1]; 50 mg/kg i.p., result in words, p<0.001 vs vehicle, 50 mg/kg) was “significant antinociceptive effects”, the “antinociceptive effect / reversal of mechanical allodynia in partial nerve ligation model” value (Male Sprague-Dawley rats [2]; result in words, 25 mg/kg) was “significant reversal of the mechanical allodynia; also recorded: antinociceptive effects” and the “mechanical allodynia, Von Frey response threshold of injured paw” value (Male Sprague-Dawley rats [2]; vehicle 2.17±0.19 g, n=7) was 5.14 ± 0.36 g.
